Values of other authors, collected in paper PMC11776332 (Virology Journal, 2025).

System: HIV-1

C=C(C)[C@@H]1CC[C@]2(NCCN3CCS(=O)(=O)CC3)CC[C@]3(C)[C@H](CC[C@@H]4[C@@]5(C)CC=C(C6=CC[C@@](CF)(C(=O)O)CC6)C(C)(C)[C@@H]5CC[C@]43C)[C@@H]12 [GSK3640254]
IC50 compared with CV-10240: lower IC50 than CV-10240
